Reference: publication PMC11871066, “Structure-based discovery of hydrocarbon-stapled paxillin peptides that block FAK scaffolding in cancer” (Nature Communications, 2025)
Like-named read-outs stand apart in the source and are kept apart here. Bridge positions count the residues as written; N and C are the ends. Square brackets hold non-standard residues; d marks the D form. Peptide text beside a SMILES is read from it. R8 = C=CCCCCCC[C@@](C)(N)C(=O)O; S5 = C=CCCC[C@](C)(N)C(=O)O

Assays:
trypsin [1] = molecular target: trypsin (Bos taurus, UniProt P00760)
Sequence of trypsin (Bos taurus, UniProt P00760) (P00760 24-246): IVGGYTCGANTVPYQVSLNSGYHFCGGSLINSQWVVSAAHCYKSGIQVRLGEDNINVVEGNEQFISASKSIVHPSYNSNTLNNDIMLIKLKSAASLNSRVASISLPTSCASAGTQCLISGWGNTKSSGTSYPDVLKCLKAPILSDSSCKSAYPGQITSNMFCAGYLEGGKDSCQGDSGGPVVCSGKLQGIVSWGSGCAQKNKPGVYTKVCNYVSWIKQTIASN
Description: (§1) Cell permeability of peptide drugs was determined by fluorescence measurement of TAMRA-labeled peptides in 96-well plates and ClarioStar Plus plate reader using BMG ClarioStar MARS software (version 4.20). […] Percent uptake was calculated as background-subtracted fluorescence absorbed by cells/fluorescence of peptide in media-only wells, then made relative to TAMRA-Alkyne. Three biological replicates (n = 3) were performed per cell line per treatment group. Peptide proteolysis was measured using immobilized Trypsin-agarose resin (Thermo Fisher) and quantification by LC-MS. […] In vivo pharmacokinetics were performed by the UACC Analytical Chemistry Shared Resource. […] The mice were fed NIH-31 irradiated pellets (Tekland Premier, Madison, Wisconsin), and reverse osmosis water was freely available. […] The average plasma concentration versus time data were analyzed using PKSolver (version 2.0) by a noncompartmental approach.

trypsin [2] = test: in vitro; conditions: isolated enzyme trypsin
Description: as §1

trypsin [3] = test: Trypsin proteolytic resistance assay; conditions: immobilized trypsin-agarose resin
Description: as §1

[4] = Circular dichroism, % alpha-helicity; type: physicochemical; conditions: CD, 20 mM NaH2PO4 pH 7.0, 20 °C, CDSSTR
Description: CD experiments were performed on a Jasco J-815 CD spectrometer equipped with a Jasco PTC-423S/15 temperature control and analysis utilizing Spectra Manager (version 2.0). Spectral measurements were made in quartz spectrophotometer cells with an optical cell path length of 1.0 mm (Starna Cells Inc.) using standard collection parameters: 20 °C, 190–260 nm, 0.5 nm step resolution, 50 nm/min scanning speed, 0.5 s response, 1 nm bandwidth, 8 accumulations. […] Secondary structure analysis, including % alpha-helicity, was performed using the CDSSTR method[58] on data reference set 4 basis spectra. The reliability of secondary structure predictions was quantified by the goodness-of-fit of the back-calculated spectrum to the experimental spectrum and reported as a normalized root-mean-square deviation (NRMSD).

FAK FAT domain = molecular target: T1, FAK FAT domain (Homo sapiens, UniProt Q05397); test: SPR binding to immobilized biotinylated FAK FAT
T1 sequence (Q05397 914-1045 limits assumed): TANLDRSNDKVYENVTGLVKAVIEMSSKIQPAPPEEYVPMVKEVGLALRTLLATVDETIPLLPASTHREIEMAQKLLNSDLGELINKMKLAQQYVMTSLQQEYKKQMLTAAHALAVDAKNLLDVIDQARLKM
Description: SPR binding studies were performed using biotinylated FAK FAT protein[51]. Briefly, SPR binding assays were performed on a ForteBio Pioneer FE SPR system using SPR running buffer (100 mM Tris-Cl pH 8.0, 200 mM NaCl, and 0.05% Tween-20). […] Desired immobilization levels were determined utilizing the following Eq. 1:1 Rmax=RproteinxMranalyte/MrproteinxVprotein where Rmax is the highest possible response of binding between the analyte and the protein, Rprotein is the change in response by the immobilization of the protein, Mr represents the mass of the analyte or protein, and Vprotein represents the number of binding sites on the protein. A target Rmax of approximately 100 RU was chosen.
All samples were diluted in the SPR buffer to a volume of 200 µl and injected using the OneStep gradient injection system at a flow rate of 150 µl/min. For a bulk standard control, a 3% (w\v) solution of sucrose in SPR buffer was used for injection. […] SPR data analysis utilized Qdat software (ForteBio, version 4.3.2 build 8) for normalization of the baseline prior to injection, channel alignment, and reference channel and blank subtraction.

[5] = molecular target: T2, FAK FAT / TAMRA-paxillin LD2 L10D (Homo sapiens, UniProt Q05397); test: Fluorescence polarization competition (FAK-paxillin) assay; type: binding
T2 construct: assay was performed using FAK FAT protein and TAMRA-LD2 L10D peptide
T2 sequence (Q05397 919-1052): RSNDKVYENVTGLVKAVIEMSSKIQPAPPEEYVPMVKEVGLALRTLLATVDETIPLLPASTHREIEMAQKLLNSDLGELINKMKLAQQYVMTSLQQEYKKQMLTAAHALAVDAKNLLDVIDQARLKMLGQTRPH
Description: The IC50 was calculated using a four-parameter dose-response inhibition model, with the bottom fit constrained to the lower plateau of the binding curve.

What does the source list for `CC(=O)N[C@@H](CC(N)=O)C(=O)N[C@@H](CC(C)C)C(=O)N[C@@H](CO)C(=O)N[C@@H](CCC(=O)O)C(=O)N[C@@H](CC(C)C)C(=O)N[C@@H](CC(=O)O)C(=O)N[C@@H](CCCNC(=N)N)C(=O)N[C@@H](CC(C)C)C(=O)N[C@@H](CC(C)C)C(=O)N[C@@H](CC(C)C)C(=O)N[C@@H](CCC(=O)O)C(=O)N[C@@H](CC(C)C)C(=O)N[C@@H](CC(N)=O)C(N)=O` [LD2, reference compound]?
trypsin proteolysis t1/2 (trypsin [1]): 46.8 min; half-life at 100 µM (trypsin [2]): 47 min; remaining at 0.25 h, 100 µM (trypsin [3]): 76%; remaining at 0.5 h, 100 µM (trypsin [3]): 70%; remaining at 1 h, 100 µM (trypsin [3]): 29%; remaining at 2 h, 100 µM (trypsin [3]): 16%; remaining at 3 h, 100 µM (trypsin [3]): 16%; remaining at 4 h, 100 µM (trypsin [3]): 13%; remaining at 6 h, 100 µM (trypsin [3]): 0%; remaining at 7 h, 100 µM (trypsin [3]): 0%; remaining at 24 h, 100 µM (trypsin [3]): 0%; remaining at 48 h, 100 µM (trypsin [3]): 0%

Which helical content [4] does the source give for `C=CCCCCCC[C@@](C)(NC(=O)[C@H](CC(C)C)NC(=O)[C@H](CC(N)=O)NC(C)=O)C(=O)N[C@@H](CCC(=O)O)C(=O)N[C@@H](CC(C)C)C(=O)N[C@@H](CC(=O)O)C(=O)N[C@@H](CCCNC(=N)N)C(=O)N[C@@H](CC(C)C)C(=O)N[C@@H](CC(C)C)C(=O)N[C@@](C)(CCCC=C)C(=O)N[C@@H](CCC(=O)O)C(=O)N[C@@H](CC(C)C)C(=O)N[C@@H](CC(N)=O)C(N)=O` [compound 2013] here?
The helical content was 70%.

What about the Kd (FAK FAT domain; Rep2, read-out: SPR (KD)) of the same molecule?
The Kd was 35.6 µM.

What does the source list for `CC(=O)N[C@@H](CC(N)=O)C(=O)N[C@@H](CC(C)C)C(=O)N[C@]1(C)CCCCCCC=CCCC[C@@](C)(C(=O)N[C@@H](CCC(=O)O)C(=O)N[C@@H](CCC(=O)O)C(=O)N[C@@H](CC(N)=O)C(N)=O)NC(=O)[C@H](CC(C)C)NC(=O)[C@H](CC(C)C)NC(=O)[C@H](CCCNC(=N)N)NC(=O)[C@H](CC(=O)O)NC(=O)[C@H](CCC(=O)O)NC(=O)[C@H](CCC(=O)O)NC1=O` [compound 2014] (Ac-NL[R8]EEDRLL[S5]EEN-NH2; staple 3-10)?
Kd (FAK FAT domain; Rep1, read-out: SPR (KD)): > 200 µM; Kd (FAK FAT domain; Rep2, read-out: SPR (KD)): > 200 µM; Kd (FAK FAT domain; Rep3, read-out: SPR (KD)): > 200 µM; Kd (FAK FAT domain; Rep4, read-out: SPR (KD)): > 200 µM; SPR KD (FAK FAT domain; one-site kinetic fit, mean ± SD of n = 2-5 biological replicates, Tris pH 8.0): did not bind FAT; Kd (FAK FAT domain; one-site kinetic fit, mean ± SD of n = 2-5 biological replicates, Tris pH 8.0, read-out: SPR KD): > 200 µM; FP Ki ([5]; 25 µM FAT, 0.1 µM probe, 3 h, mean ± SD, n = 3): did not bind FAT; Ki ([5]; Rep1, read-out: FP (Ki) data): > 1250 µM
